# Source: patent US20240376286A1, “DIHYDROXY COMPOUND MANUFACTURING METHOD AND RECYCLED RESIN MANUFACTURING METHOD” (MITSUBISHI GAS CHEMICAL COMPANY, INC., priority 2021, published 2024)
# Assay: Solubility in toluene at 25° C.
# Format: physicochemical
# Conditions: solvent toluene
row,solubility in toluene at 25° C.,SMILES
1,0.1 g/(10 mL),"OCCOc1ccc2ccccc2c1-c1c(OCCO)ccc2ccccc12 [BNE, 2,2′-bis(2-hydroxyethoxy)-1,1′-binaphthalene]"
2,0.05 g/(10 mL),"OCCOc1ccc(C2(c3ccc(OCCO)c(-c4ccccc4)c3)c3ccccc3-c3ccccc32)cc1-c1ccccc1 [BPPEF, 9,9-bis[4-(2-hydroxyethoxy)-3-phenylphenyl]fluorene]"
3,0.3 g/(10 mL),"OCCOc1ccc2cc(-c3ccccc3)ccc2c1-c1c(OCCO)ccc2cc(-c3ccccc3)ccc12 [DP, 2,2′-bis(2-hydroxyethoxy)-6,6′-diphenyl-1,1′-binaphthalene]"

# Assay: Solubility in methyl ethyl ketone (MEK) at 25° C.
# Format: physicochemical
# Conditions: solvent MEK
row,solubility in methyl ethyl ketone (MEK) at 25° C.,SMILES
1,0.75 g/(10 mL),"OCCOc1ccc2ccccc2c1-c1c(OCCO)ccc2ccccc12 [BNE, 2,2′-bis(2-hydroxyethoxy)-1,1′-binaphthalene]"
2,4.5 g/(10 mL),"OCCOc1ccc(C2(c3ccc(OCCO)c(-c4ccccc4)c3)c3ccccc3-c3ccccc32)cc1-c1ccccc1 [BPPEF, 9,9-bis[4-(2-hydroxyethoxy)-3-phenylphenyl]fluorene]"
3,0.3 g/(10 mL),"OCCOc1ccc2cc(-c3ccccc3)ccc2c1-c1c(OCCO)ccc2cc(-c3ccccc3)ccc12 [DP, 2,2′-bis(2-hydroxyethoxy)-6,6′-diphenyl-1,1′-binaphthalene]"
